In ChEMBL document CHEMBL5154638, “Molecular Plasticity of Crystalline CK2α' Leads to KN2, a Bivalent Inhibitor of Protein Kinase CK2 with Extraordinary Selectivity” (J Med Chem, 2022):

Assays:
HeLa = assay: cells; conditions: Homo sapiens, 24 h
in vitro = conditions: human, HEK293 cells

Structure (SMILES) | EC50 (HeLa) | EC50 at 24 h (in vitro)
O=C(CCC(=O)NCCc1ccc(Cl)c(Cl)c1)NCCCCn1cnc2c(Br)c(Br)c(Br)c(Br)c21 | 6.19 µM | 15.9 µM
O=C(O)c1ccc2c(c1)nc(Nc1cccc(Cl)c1)c1ccncc12 [SILMITASERTIB] | 2.1 µM | –
